Earlier results on one compound are cited in patent publication US9635858B2, “Pesticide and a method of controlling a wide variety of pests” (GOWAN COMERCIO INTERNACIONAL E SERVICOS LIMITADA, priority 2011, dated 2017).

SMILES strings stand for the structures.

For this data set the following is noted: rats; cited from earlier work.

On to `C/C=C(\C)C(=O)O[C@H]1C[C@@H](OC(C)=O)[C@@]2(C(=O)OC)CO[C@H]3[C@@H](O)[C@@](C)([C@]45O[C@@]4(C)[C@H]4C[C@@H]5O[C@@H]5OC=C[C@@]54O)C4[C@]1(CO[C@]4(O)C(=O)OC)[C@@H]32` (stereo partly shown) [Azadirachtin], for which the LD50 is given as > 3,540 mg/kg.
